Data set [1] can be described thus: Rat liver microsomal metabolic stability. Conditions: rat liver microsomes; for half-life at 1 µM: NADPH, 37°C; for CLint scaled at 1 µM: calculated from T1/2, fu defaulted to 1, read-out: CL(liver). It is filed as in vitro ADME. The essentials:
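Rat liver microsomes (1 mg/mL working solution) with test compound (working solution 100 µM) were pre-incubated 5 min at 37 °C, then started with NADPH (4.0 mM working solution). Residual compound measured by LC-MS/MS over time. T1/2 taken from first-order decay, scaled to CLint and hepatic CL with fu = 1.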

For another data set, the target named is T1, CYP2C9 (Homo sapiens, UniProt P11712).
T1 construct: human liver microsomes were used as the CYP450 enzyme source; from tissue; host or cells: human liver microsomes
T1 sequence (P11712 whole entry): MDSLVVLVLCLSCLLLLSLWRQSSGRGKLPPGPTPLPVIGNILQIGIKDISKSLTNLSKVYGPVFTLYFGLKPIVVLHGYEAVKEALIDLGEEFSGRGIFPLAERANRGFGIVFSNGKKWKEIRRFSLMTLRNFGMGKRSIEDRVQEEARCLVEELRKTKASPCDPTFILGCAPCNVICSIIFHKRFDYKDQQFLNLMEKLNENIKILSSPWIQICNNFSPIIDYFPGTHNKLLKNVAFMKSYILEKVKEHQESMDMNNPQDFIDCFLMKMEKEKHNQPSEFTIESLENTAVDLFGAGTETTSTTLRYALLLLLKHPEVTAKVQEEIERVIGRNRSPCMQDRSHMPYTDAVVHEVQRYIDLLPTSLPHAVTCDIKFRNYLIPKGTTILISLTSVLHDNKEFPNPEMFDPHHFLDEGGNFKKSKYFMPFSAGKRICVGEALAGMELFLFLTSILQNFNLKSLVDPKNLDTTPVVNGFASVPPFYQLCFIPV
The data set is described as follows: Inhibition of hepatic drug-metabolizing enzymes in human liver microsomes. Conditions: human liver microsomes; read-out: Inhibitory activity on drug-metabolizing enzymes (IC50, µM) CYP2C9. It is filed as in vitro ADME. (In general: Microsomes from liver hold many membrane-bound enzymes, among them those of drug oxidation.)

For a further data set, the target named is T2, CYP2C19 (Homo sapiens, UniProt P33261).
T2 construct: human liver microsomes were used as the CYP450 enzyme source; from tissue; host or cells: human liver microsomes
T2 sequence (P33261 whole entry): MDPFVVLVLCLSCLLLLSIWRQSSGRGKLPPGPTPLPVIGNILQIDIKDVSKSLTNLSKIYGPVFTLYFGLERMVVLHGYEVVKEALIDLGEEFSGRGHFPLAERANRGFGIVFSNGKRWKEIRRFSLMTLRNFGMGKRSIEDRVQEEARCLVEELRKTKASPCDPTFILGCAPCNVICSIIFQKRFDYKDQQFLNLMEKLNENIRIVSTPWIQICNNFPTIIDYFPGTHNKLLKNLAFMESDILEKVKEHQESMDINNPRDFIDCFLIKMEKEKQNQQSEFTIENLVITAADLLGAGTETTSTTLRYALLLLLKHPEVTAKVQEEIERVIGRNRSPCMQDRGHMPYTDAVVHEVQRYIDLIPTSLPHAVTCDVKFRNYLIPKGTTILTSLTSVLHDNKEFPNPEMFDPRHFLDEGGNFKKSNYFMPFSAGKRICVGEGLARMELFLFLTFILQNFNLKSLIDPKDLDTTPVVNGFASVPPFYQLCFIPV
The description is as above. It is filed as in vitro ADME. Conditions: human liver microsomes; read-out: Inhibitory activity on drug-metabolizing enzymes (IC50, µM) CYP2C19.

Data set [2] deals with NCI-H358 non-small cell lung cancer cells. The data set is described as follows: Inhibition of NCI-H358 cell proliferation (CellTiter-Glo 3D, 7 days). The format is cell-based. Conditions: Homo sapiens, NCI-H358, 168 h, 3D microspheres, read-out: Inhibitory activity against NCI-H358 cell proliferation (IC50). The essentials:
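NCI-H358 cells at 2000/well in ultra-low attachment plates grown overnight into spheroids, then exposed to 8-point 5-fold compound dilutions in RPMI-1640/10% FBS for 7 days at 37 °C. Viability by CellTiter-Glo 3D luminescence; inhibition relative to no-inhibitor and cell-free controls.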
In general terms: Cellular ATP, detected with luciferase, serves as a proxy for viable cell number.

pIC50: −log10 of the molar value.

By half-life is commonly meant the time in which the quantity being followed falls by half. Usually IC50 stands for the point on the concentration scale where inhibition reaches its midpoint. Turning to `C[C@@H](Nc1nnc(N2CCN(C)CC2)c2cc(=O)n(N3CCOCC3)cc12)c1cccc(C(F)F)c1F` [Example 110, (R)-4-((1-(3-(difluoromethyl)-2-fluorophenyl)ethyl)amino)-1-(4-methylpiperazin-1-yl)-6-morpholinopyrido[3 ,4-d]pyridazin-7(6H)-one], in data set [1], the half-life at 1 µM is more than 5 h and the CLint scaled at 1 µM was less than 7.23 mL/min/kg. In addition, at CYP2C9, the IC50 is more than 10 µM. For the same molecule, the IC50 at CYP2C19 was more than 10 µM. In data set [2], the pIC50 was 8.02.
`CNc1nnc(N[C@H](C)c2cccc(C(F)(F)F)c2C)c2cn(C3(C)CC3)c(=O)cc12` [Example 73, (R)-4-((1-(2-methyl-3-(trifluoromethyl)phenyl)ethyl)amino)-1-(methylamino)-6-(1-methylcyclopropyl) pyrido[3,4-d]pyridazin-7(6H)-one] came in with a half-life at 1 µM in data set [1] of 1.59 h. Besides, the CLint scaled at 1 µM in data set [1] is 17.7 mL/min/kg. Besides, the IC50 at CYP2C9 and at CYP2C19 was more than 10 µM each time. For the same molecule, in data set [2], the pIC50 is 7.83.

The values are drawn from patent publication EP4722213A1, “NITROGEN-CONTAINING FUNCTIONAL GROUP-SUBSTITUTED PYRIDAZINOPYRIDONE DERIVATIVE AND USE THEREOF” (Sichuan Huiyu Pharmaceutical Co., Ltd., priority 2023, dated 2024).
